Reference: paper PMC5814047, “Peptidic inhibitors of insulin-degrading enzyme with potential for dermatological applications discovered via phage display” (PLoS ONE, 2018)
Converted amounts (≈) assume the structure as drawn. “And” between values parts separate entries of the source, which are not always exact repeats. Equal values may be shown once. Read-outs that look alike come from different tables or passages of the source. Bridge positions count the residues as written; N and C are the ends. Peptide text beside a SMILES is read from it.

What was measured:
[1] = Solubility in assay medium and cell culture medium; format: physicochemical; details: cosmetic-grade P12-3A, read-out: soluble up to
[2] = tested on: hydroxyproline secreted by primary murine skin fibroblasts; assay: Hydroxyproline secretion into medium; format: cell-based
Description: Insulin promotes wound healing and overall skin health by affecting a number of processes, including cell proliferation, cell migration, and the production and secretion of ECM components, particularly type I collagen. We therefore assessed the ability of P12-3A to influence these processes in cultured skin fibroblasts and keratinocytes. To that end, primary mouse skin fibroblasts were grown for 4 d in multiple concentrations of insulin in the presence or absence of P12-3A, and insulin concentration over time was monitored by ELISA. […] Finally, the effects of P12-3A on collagen production in were assessed at both the transcriptional and the posttranslational level in confluent monolayers of fibroblasts. After 4 d of treatment with P12-3A (100 μM), mRNA levels for the major form of collagen, alpha-1 type I collagen (COL1A1), were quantified by RT-PCR and found to be increased to ~2.6 times the levels of untreated cells (Fig 4C). To assess overall levels of collagen production and secretion, we quantified levels of hydroxyproline, a modified amino acid present almost exclusively in collagen proteins. […] Western blotting also confirmed that mature, cell-associated collagen levels were increased in the presence of P12-3A (Fig 4E).
Fig 4 Effects of P12-3A on cultured skin cells. A, Insulin concentrations as a function of time in logarithmically growing primary murine skin fibroblasts in the absence or presence of P12-3A (100 μM). […] Data are mean ± SEM of 4 independent replications. *P<0.05, **P<0.01. B, Proliferation of cells in the absence or presence of P12-3A (100 μM). Data are mean ± SEM of 6 independent replications. […] C,D,E, P12-3A (100 μM) potentiates insulin-induced collagen production in skin fibroblasts. Collagen production was assessed by COL1A1 mRNA levels (C), levels of hydroxyproline secreted into the medium (D), and cell-associated mature alpha-1 type I collagen levels detected by Western blotting (E). Data are mean ± SD of 4 independent replications. *P<0.05, **P<0.01. […] Migration of HaCaT cells 48 h after induction of a scratch wound in the presence of the indicated quantities of insulin and/or P12-3A (100 μM). Data are mean ± SEM of 6 independent replications. *P<0.05, **P<0.01.
For quantitation of hydroxyproline secretion by primary murine skin fibroblasts, cells (1 x 10^5/well) were plated in 24-well plates DMEM supplemented with 10% FBS, 2mM glutamine, penicillin, streptomycin and 100 nM insulin, in the absence or presence of 100 μM P12-3A. After incubation for 4 days, the conditioned medium was removed, centrifuged at 1000 x g for 10 min to remove cellular debris, and hydroxyproline levels were quantified using the Hydroxyproline Assay Kit according to manufacturer’s recommendations (Sigma-Aldrich, St. Louis, MO, USA).

[3] = tested on: multiple peptidases of different protease classes; assay: Activity on additional proteases, FAßB degradation assay; format: biochemical; set-up: concentration or dose not given beside the values; details: for % activity relative to DMSO-only and no-enzyme controls, Mean: N 8; for % activity relative to DMSO-only and no-enzyme controls, single runs: each run mean of quadruplicates
Description: IDE activity was quantified by monitoring the degradation of Mca-[…](Dnp) (FRET1, 5 μM), fluoresceinated and biotinylated amyloid ß-protein (FAßB; 500 nM) or recombinant human insulin (50 nM) in PBS supplemented with 0.05% BSA. FRET1 degradation was measured by changes in fluorescence (λex = 340 nm, λem = 420 nm); FAßB degradation was monitored by fluorescence polarization (λex = 488 nm, λem = 525 nm), as described; and insulin degradation was quantified by ELISA. In vitro activity assays incorporated recombinant human IDE (1 nM) purified from bacteria. For quantitation of insulin degradation in primary murine skin fibroblasts, cells (1 x 10^5/well) were plated in 96-well plates and maintained in DMEM supplemented with 10% fetal bovine serum (FBS), 2mM glutamine, penicillin and streptomycin. After addition of insulin (10 nM or 100 nM), samples of conditioned medium were removed daily and quickly frozen, then insulin levels were quantified in parallel by ELISA according to manufacturer’s recommendations (Crystal Chem, Downers Grove, IL, USA). Assessment of the activity of P12-3A against a variety of matrix-metalloproteases was conducted using the Matrix Metalloproteinase (MMP) Inhibitor Profiling Kit, Fluorometric RED (Enzo Life Sciences, Inc., Farmingdale, NY, USA) according to manufacturer’s recommendations using the broad-spectrum MMP inhibitor, NNGH, as a positive control.
Supplementary file pone.0193101.s004.tif: S4 Fig Selectivity of P12-3A for IDE vis-à-vis other proteases. Activity of P12-3A (100 μM) against (A) multiple matrix-metalloproteases (MMPs) and (B) multiple peptidases of different protease classes. […] Data are mean ± SD, n = 8–16 per group. P<0.05 by 2-tailed Student’s t-test. […] See Materials and Methods for details. NEP, neprilysin; mCatD, murine cathepsin D; hCatD, human cathepsin D. (TIF) Click here for additional data file.

[4] = tested on: cultured skin cells; assay: Toxicity in cell culture experiments; format: cell-based
From the text: Although a variety of potent and selective IDE inhibitors have been developed, current inhibitors are difficult to synthesize, expensive to generate and/or contain chemical moieties or constituents with established or undetermined potential for toxicity. Due to these and other considerations, existing IDE inhibitors are poorly suited for topical applications. To overcome these limitations, in the present study we aimed to develop peptidic inhibitors of IDE suitable for use in wound healing or cosmetic applications. […] To that end, we used phage display technology to select for a range of peptides that bind to IDE with strong affinity, which were then screened for resistance to degradation by IDE.

solubility ([1]; assay medium (PBS/0.05%BSA)): ~500 µM (≈ 715 µg/mL)
solubility ([1]; cell culture medium): ~100 µM (≈ 143 µg/mL)
% activity relative to DMSO-only and no-enzyme controls, Mean ([3]; Plasmin): 102.2%
% activity relative to DMSO-only and no-enzyme controls, Mean ([3]; Trypsin): 97.0%
Structure (SMILES): CC(C)C[C@H](NC(=O)[C@H](CO)NC(=O)[C@@H](N)CCC(N)=O)C(=O)N1CCC[C@H]1C(=O)N[C@@H](Cc1c[nH]c2ccccc12)C(=O)N[C@H]1CSSC[C@@H](C(=O)N[C@H](C(=O)N[C@H](C(N)=O)[C@@H](C)O)C(C)C)NC(=O)[C@H](Cc2c[nH]cn2)NC(=O)[C@@H]2CCCN2C(=O)[C@H](Cc2ccc(O)cc2)NC1=O [P12-3A] (H-QSLPWCYPHCVT-NH2; disulfide 6-10 (inferred))
hydroxyproline levels secreted into the medium ([2]; 100 μM P12-3A, 100 nM insulin, 4 days): ~ 4.6 times that secreted by untreated cells
Hydroxyproline, Mean ([2]; from standard curve, N 4): 0.989 ug/well
Hydroxyproline ([2]; from standard curve, individual replicates): 0.7793 ug/well and 1.026 ug/well and 0.6312 ug/well and 1.309 ug/well
Hydroxyproline, Normalized, Mean ([2]; normalized to control mean (1.000), N 4): 4.585
Hydroxyproline, Normalized ([2]; normalized to control mean (1.000), individual replicates): 3.613 and 4.758 and 2.926 and 6.069
Hydroxyproline quantification, OD560 ([2]; raw OD560, individual replicates): 0.849 and 1.1137 and 0.6903 and 1.4165
% activity relative to DMSO-only and no-enzyme controls, single runs ([3]; Plasmin): 81.4012% and 90.4633% and 101.45% and 148.471% and 93.7572% and 91.0067% and 95.3568% and 115.381%
% activity relative to DMSO-only and no-enzyme controls, single runs ([3]; Trypsin): 89.0897% and 97.7425% and 98.0394% and 101.611% and 90.6127% and 100.837% and 98.0681% and 99.896%
toxicity in cell culture experiments [4]: no evidence of toxicity
